From paper PMC9437215, “Synthesis and antibacterial activity evaluation of N (7) position-modified balofloxacins” (Frontiers in Chemistry, 2022)
Values after ≈ are worked out from the molar mass of the structure shown. “Also recorded” adds a separate entry of the source. Where two headings read alike, the source gives them in different places.

What was measured:
Hemolytic activity = assay type: cell-based, rabbit; details: male, New Zealand white, rabbit, red cell suspension from rabbit blood; even at high concentrations (> 10^5 × MIC), 37°C, 24 h; read-out: hemolysis rate
Method: (§1) The animal experiment was approved by the Laboratory Animal Management Committee/Laboratory Animal Welfare Ethics Committee, Institute of Radiation Medicine, Chinese Academy of Medical Sciences (No. IRM-DWLL-2019153). Hemolysis anemia is one of the major adverse reactions of antibiotics. To assess the blood compatibility of N (7) position modified balofloxacin, the hemolytic activity of 2-e was tested. Fresh rabbit blood, obtained from the ear vein of a male New Zealand white rabbit, was diluted at a ratio of 1:20 in volume with PBS, centrifuged and resuspended in PBS at 1,000 rpm for 5 min to form an experimental red cell suspension. 500 μL drug 2-e solution and equal volumes of blood suspension were mixed in which the final drug concentration was 500, 250, 125, 62.5, 31.25, 15.62, 7.81, 3.91, 1.95, and 0.98 μg/ml, respectively, these mixtures were incubated at 37°C for 24 h. The positive control group was an equal volume of diluted blood cells mixed with an equal volume of 0.5% Triton X-100. The negative control group was mixed with an equal volume of PBS and diluted blood cells. After incubation, the mixture in a series of centrifuge tubes was centrifuged under the same conditions, and 200 μL of the supernatant was aspirated and transferred to a 96-well plate. The release of hemoglobin from the main contents was measured at A405nm using a microplate reader (Thermo, Varioskan Flash 3001, United States). Each data were from the triplicate experiments. The percentage of hemolysis in the hemolysis test was calculated according to the following formula: %Hemolysis=(A405 test sample−A405 negative control)/(A405 positive control−A405 negative control).

MRSA cells = experiment: Cell wall damage monitored by atomic force microscopy (AFM); assay type: cell-based; details: 10 μM, 37°C, 30 min
Method: To observe the structural changes in the bacterial surface after the administration of balofloxacin derivative 2-e, atomic force microscope assay was performed. The bacterial suspension was diluted with LB liquid medium to 10^7 CFU/ml. The bacterial solution and the drug solution were mixed in an equal volume so that the concentration of 1e and 2-e was 10 μM in the final solution, respectively. And after mixing, it was incubated at 37°C for 30 min, together with the control group in the same way. After that, the sample was centrifuged at 9,000 rpm for 5 min and the supernatant was discarded, while the precipitate was washed twice with physiological saline in the same volume and centrifuged at 9,000 rpm for 5 min. Finally, the bacterial sample, prepared by dispersion in the same volume of physiological saline solution, was dropped onto the surface of the mica plate (about 0.5 cm^2), dried naturally at ambient temperature, and scanned by an atomic force microscope.

MRSA [1] = experiment: MIC and MBC determinations in vitro, MRSA; assay type: cell-based; details: MRSA clinical isolate; for MIC: 24 h culture; for MBC: solid medium 24 h, read-out: MBC
Method: (§2) The three strains of MRSA, P. aeruginosa, and E. coli used in this experiment were from clinical isolates, which were provided by the People’s Liberation Army 304 Hospital.
(§3) To evaluate the antibacterial activities of newly synthesized N (7) position modified fluoroquinolones, the minimum inhibitory (MIC) and bactericidal (MBC) concentrations of these compounds toward bacteria were measured.

E. coli = experiment: MIC and MBC determinations in vitro, E. coli; assay type: cell-based; details: Escherichia coli, E. coli clinical isolate; for MIC: 24 h culture; for MBC: solid medium 24 h
Method: as §2, §3

MRSA [2] = experiment: Time-dependent antibacterial effects in vitro; assay type: cell-based; details: for antibacterial activity in early and late stages of the exponential growth phase: 10 × MIC; for log10 CFU after the first 8 h: early exponential phase, start log10 CFU 5.5, 10 × MIC
Method: In order to further verify the antibacterial effect of the representative compound 2-e, time-dependent bactericidal activity of 2-e against MRSA was determined. This study referred to the reported methods ([Ling et al., 2015]). MRSA was cultured overnight in LB liquid and the bacterial solution at 10^9 CFU/ml tested on the machine was diluted at 1:10,000 with LB liquid medium and cultured at 37°C, 180 rpm. […] Time-dependent bacterial colonies were evaluated at 4 or 8 h intervals as follows: 100 μL of the mixture at the current time point was taken and centrifuged at 10,000 rpm for 2 min, and the pellet formed was dispersed with PBS, which was diluted by the ten-fold dilution method. 100 μL of bacterial dilution was evenly spread on LB solid medium at 37°C for 24 h. The colonies counted, according to national standards, accounted for the drug’s time-dependent antibacterial results. The same experimental operation was repeated three times independently.

P. aeruginosa = experiment: MIC and MBC determinations in vitro, P. aeruginosa; assay type: cell-based; details: P. aeruginosa clinical isolate; for MIC: 24 h culture; for MBC: solid medium 24 h
Method: as §2, §3

[3] = tested on: MRSA, P. aeruginosa, and E. coli; experiment: MIC and MBC values stated over the three strains together; assay type: cell-based
Method: as §2, §3

[4] = tested on: rabbit red cell suspension; experiment: Hemolytic activity; assay type: cell-based
Method: as §1

[5] = Cell viability assay (MTS), A549; assay type: cell-based, human; details: human, A549 tumor cells; A549, 100 μmol/L, 48 h
Method: (§4) To investigate the biocompatibility of the synthesized balofloxacin derivative, the cytoxicity of 2-e on human normal cells (3T3, L-02) and tumor cells (BEL-7402, H520, A549, and MCF-7) was studied. As an experimental example human liver cells (L-02) growing in the log phase, were plated in the 96-well plate at a density of 5000 cells/well. The cells were cultured at 37°C for 24 h under 5% CO2 medium. Then different concentrations of 1e and 2-e were added, the L-02 cells were cultured at 37°C for 48 h under a 5% CO2 atmosphere. Then the medium was aspirated, 100 μL of serum-free medium and 20 μL of MTS were added into each well, and L-02 was incubated at 37°C for 1 h under a 5% CO2 atmosphere. After that, the absorbance of the solutions at 490 nm was obtained using a microplate reader and calculated cell survival rate according to the following formula: Cell survive rate(%)=(ODtest−ODblank)/(ODcontrol−ODblank)×100%.

A549 = experiment: Cell viability assay (MTS), A549; assay type: cell-based, human; details: A549
Method: as §4

[6] = Cell viability assay (MTS), BEL-7402; assay type: cell-based, human; details: human, BEL-7402 tumor cells; BEL-7402, 100 μmol/L, 48 h
Method: as §4

BEL-7402 = experiment: Cell viability assay (MTS), BEL-7402; assay type: cell-based, human; details: BEL-7402
Method: as §4

[7] = Cell viability assay (MTS), MCF-7; assay type: cell-based, human; details: human, MCF-7 tumor cells; MCF-7, 100 μmol/L, 48 h
Method: as §4

MCF-7 = experiment: Cell viability assay (MTS), MCF-7; assay type: cell-based, human; details: MCF-7
Method: as §4

[8] = Cell viability assay (MTS), H520; assay type: cell-based, human; details: human, H520 tumor cells; H520, 100 μmol/L, 48 h
Method: as §4

H520 = experiment: Cell viability assay (MTS), H520; assay type: cell-based, human; details: H520
Method: as §4

[9] = Cell viability assay (MTS), 3T3; assay type: cell-based; details: mouse, 3T3 cells; 3T3, 100 μmol/L, 48 h
Method: as §4

3T3 = experiment: Cell viability assay (MTS), 3T3; assay type: cell-based; details: 3T3
Method: as §4

L-02 = experiment: Cell viability assay (MTS), L-02; assay type: cell-based, human; details: L-02
Method: as §4

[10] = Cell viability assay (MTS), L-02; assay type: cell-based, human; details: human, L-02 cells (normal liver cells); L-02, 100 μmol/L, 48 h
Method: as §4

[11] = Staphylococcus aureus, MRSA, 24 h, read-out: MIC
[12] = Staphylococcus aureus, MRSA, 24 h
[13] = Pseudomonas aeruginosa, read-out: MIC
[14] = Pseudomonas aeruginosa, read-out: MBC
[15] = range over MIC and MBC and the three strains, read-out: MIC and MBC values

CNC1CCCN(c2c(F)cc3c(=O)c(C(=O)O)cn(C4CC4)c3c2OC)C1 (stereo not shown) [Compound 1e, balofloxacin]
hemolysis at 24 h (Hemolytic activity): ≤ 5%
structural change of MRSA cells in AFM image (MRSA cells): ruptured and there was an outflow of cellular contents
MIC (MRSA [1]; [11]): 0.078 µg/mL (≈ 0.2 µM)
MBC (MRSA [1]; [12]): 0.156 µg/mL (≈ 0.401 µM)
MIC (E. coli): 0.078 µg/mL (≈ 0.2 µM)
MBC (E. coli): 0.156 µg/mL (≈ 0.401 µM)
antibacterial activity in early and late stages of the exponential growth phase (MRSA [2]; MRSA): good antibacterial activity
log10 CFU after the first 8 h (MRSA [2]): 0
MIC (P. aeruginosa): 0.078 µg/mL (≈ 0.2 µM)
MBC (P. aeruginosa): 0.156 µg/mL (≈ 0.401 µM)
MIC (P. aeruginosa; [13]): 0.078 µg/mL (≈ 0.2 µM)
MBC (P. aeruginosa; [14]): 0.156 µg/mL (≈ 0.401 µM)

C[C@H]1COc2c(C3(N)CC3)c(F)cc3c(=O)c(C(=O)O)cn1c23 [Compound 1g, pazufloxacin, reference compound]
MIC (MRSA [1]; [11]): 0.156 µg/mL (≈ 0.49 µM)
MBC (MRSA [1]; [12]): 0.313 µg/mL (≈ 0.983 µM)
MBC [3, 15]: 0.156 to 0.625 µg/mL
MIC (E. coli): 0.156 µg/mL (≈ 0.49 µM)
MBC (E. coli): 0.313 µg/mL (≈ 0.983 µM)
MIC (P. aeruginosa; [13]): 0.313 µg/mL (≈ 0.983 µM)
MBC (P. aeruginosa; [14]): 0.625 µg/mL (≈ 1.96 µM)

COc1c(N2CCCC(N(C)C(C)=O)C2)c(F)cc2c(=O)c(C(=O)O)cn(C3CC3)c12 (stereo not shown) [Compound 2-e, 1-Cyclopropyl-6-fluoro-8-methoxy-7-(3-(N-methylacetamido)piperidin-1-yl)-4-oxo-1,4-dihydroquinoline-3-carboxylic acid]
hemolysis at 24 h (Hemolytic activity): ≤ 5%
hemolytic activity [4]: not hemolytic
structural change of MRSA cells in AFM image (MRSA cells): could effectively destroy the membrane and wall of MRSA cells; also recorded: complete discharge of their contents and substantial fragmentation
MIC (MRSA [1]): 0.0195 µg/mL (≈ 0.0452 µM)
MIC (MRSA [1]; [11]): 0.0195 to 0.039 µg/mL (≈ 0.0452 to 0.0904 µM)
MBC (MRSA [1]; [12]): 0.039 µg/mL (≈ 0.0904 µM)
MBC ([3]; bound over MIC and MBC, converted to μmol/L, read-out: MIC and MBC): < 12 µM
MIC (E. coli): 2.5 µg/mL (≈ 5.79 µM)
MBC (E. coli): 5 µg/mL (≈ 11.6 µM)
viability at 48 h, 100 μmol/L [5]: ≥ 80%
toxicity toward cell line (A549): low toxicity
antibacterial activity in early and late stages of the exponential growth phase (MRSA [2]; MRSA): good antibacterial activity
time-dependent antibacterial effect, early logarithmic growth phase (MRSA [2]; MRSA): bactericidal effects occurred
time-dependent antibacterial effect, late logarithmic growth phase (MRSA [2]; MRSA): bacterial inhibition occurred
log10 CFU after the first 8 h (MRSA [2]): 0
MIC (P. aeruginosa): 0.039 µg/mL (≈ 0.0904 µM)
MBC (P. aeruginosa): 0.078 µg/mL (≈ 0.181 µM)
MIC (P. aeruginosa; [13]): 0.039 µg/mL (≈ 0.0904 µM)
MBC (P. aeruginosa; [14]): 0.078 µg/mL (≈ 0.181 µM)
viability at 48 h, 100 μmol/L [6]: ≥ 80%
toxicity toward cell line (BEL-7402): low toxicity
viability at 48 h, 100 μmol/L [7]: ≥ 80%
toxicity toward cell line (MCF-7): low toxicity
viability at 48 h, 100 μmol/L [8]: ≥ 80%
toxicity toward cell line (H520): low toxicity
viability at 48 h, 100 μmol/L [9]: ≥ 80%
toxicity toward cell line (3T3): low toxicity
melting point: 201.6 to 202.3 °C
toxicity toward cell line (L-02): low toxicity; also recorded: did not show toxicity
viability at 48 h, 100 μmol/L [10]: ≥ 80%

CC(=O)NC1(c2c(F)cc3c(=O)c(C(=O)O)cn4c3c2OCC4C)CC1 (stereo not shown) [Compound 2-g, 10-(1-Acetamidocyclopropyl)-9-fluoro-3-methyl-7-oxo-2,3-dihydro-7H-[1,4]oxazino[2,3,4-ij]quinoline-6-carboxylic acid]
MIC (MRSA [1]; [11]): 25 µg/mL (≈ 69.4 µM)
MBC (MRSA [1]; [12]): 50 µg/mL (≈ 139 µM)
MBC [3, 15]: 25 to 50 µg/mL
MIC (E. coli): 25 µg/mL (≈ 69.4 µM)
MBC (E. coli): 50 µg/mL (≈ 139 µM)
MIC (P. aeruginosa; [13]): 25 µg/mL (≈ 69.4 µM)
MBC (P. aeruginosa; [14]): 50 µg/mL (≈ 139 µM)
melting point: 273.1 to 274.1 °C

COc1c(N2CCCC(N(C)C(=O)CC#N)C2)c(F)cc2c(=O)c(C(=O)O)cn(C3CC3)c12 (stereo not shown) [Compound 22-e, 7-(3-(2-Cyano-N-methylacetamido)piperidin-1-yl)-1-cyclopropyl-6-fluoro-8-methoxy-4-oxo-1,4-dihydroquinoline-3-carboxylic acid]
MIC (MRSA [1]; [11]): 0.39 µg/mL (≈ 0.854 µM)
MBC (MRSA [1]; [12]): 0.78 µg/mL (≈ 1.71 µM)
MIC (E. coli): 0.78 µg/mL (≈ 1.71 µM)
MBC (E. coli): 1.56 µg/mL (≈ 3.42 µM)
MIC (P. aeruginosa; [13]): 0.78 µg/mL (≈ 1.71 µM)
MBC (P. aeruginosa; [14]): 1.56 µg/mL (≈ 3.42 µM)
melting point: 184.8 to 186.2 °C
